Source: ChEMBL document CHEMBL1130009 (J Med Chem, 1997)

Columns and labels:
D(3) dopamine receptor = D(3) dopamine receptor (Homo sapiens, UniProt P35462); experiment: Binding affinity on human Dopamine receptor D3 expressed in CHO cells using radioligand [3H]-YM 09151; type: cell-based
D(4) dopamine receptor = target: T1, D(4) dopamine receptor (Homo sapiens, UniProt P21917); experiment: Binding affinity on human Dopamine receptor D4 expressed in CHO cells using radioligand [3H]-YM 09151; type: cell-based
T1 sequence (P21917 whole entry): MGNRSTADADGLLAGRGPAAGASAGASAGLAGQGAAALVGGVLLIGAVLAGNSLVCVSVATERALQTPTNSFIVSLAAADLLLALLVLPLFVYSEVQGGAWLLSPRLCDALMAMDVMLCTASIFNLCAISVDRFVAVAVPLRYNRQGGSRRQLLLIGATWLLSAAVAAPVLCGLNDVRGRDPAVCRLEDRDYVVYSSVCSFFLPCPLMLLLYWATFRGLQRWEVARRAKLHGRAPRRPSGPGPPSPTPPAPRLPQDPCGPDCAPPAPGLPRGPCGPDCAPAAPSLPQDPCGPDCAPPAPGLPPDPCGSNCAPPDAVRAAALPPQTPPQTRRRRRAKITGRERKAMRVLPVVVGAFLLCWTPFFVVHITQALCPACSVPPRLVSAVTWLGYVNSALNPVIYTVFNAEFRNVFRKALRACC

[1] = target: T2, 5-hydroxytryptamine receptor 1A (Homo sapiens, UniProt P08908); experiment: Binding affinity against 5-hydroxytryptamine 1A receptor
T2 sequence (P08908 whole entry): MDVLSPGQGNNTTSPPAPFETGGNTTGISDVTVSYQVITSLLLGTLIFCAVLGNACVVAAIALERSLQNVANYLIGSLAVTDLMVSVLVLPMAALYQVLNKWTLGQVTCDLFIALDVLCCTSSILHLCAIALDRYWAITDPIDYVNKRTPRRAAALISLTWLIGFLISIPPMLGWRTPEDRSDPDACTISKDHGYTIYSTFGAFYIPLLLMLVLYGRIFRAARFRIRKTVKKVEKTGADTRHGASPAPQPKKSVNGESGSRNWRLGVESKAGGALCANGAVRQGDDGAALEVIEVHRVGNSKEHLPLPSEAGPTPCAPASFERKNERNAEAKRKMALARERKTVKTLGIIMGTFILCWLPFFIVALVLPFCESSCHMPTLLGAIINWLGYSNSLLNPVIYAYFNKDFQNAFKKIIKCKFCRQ

Chain of D(3) dopamine receptor (P35462 whole entry): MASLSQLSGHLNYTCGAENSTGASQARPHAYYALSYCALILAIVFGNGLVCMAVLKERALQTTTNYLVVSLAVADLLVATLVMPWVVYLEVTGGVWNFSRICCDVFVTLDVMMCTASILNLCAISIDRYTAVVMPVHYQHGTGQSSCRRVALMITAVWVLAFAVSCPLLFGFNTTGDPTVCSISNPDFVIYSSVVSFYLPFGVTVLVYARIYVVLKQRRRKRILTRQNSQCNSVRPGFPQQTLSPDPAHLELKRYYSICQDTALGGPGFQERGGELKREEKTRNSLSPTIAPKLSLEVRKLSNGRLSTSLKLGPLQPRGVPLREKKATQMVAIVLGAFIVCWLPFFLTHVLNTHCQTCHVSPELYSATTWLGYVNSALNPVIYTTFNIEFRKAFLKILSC

Structure (SMILES)	Ki (D(3) dopamine receptor) [nM]	Ki (D(4) dopamine receptor) [nM]	Ki [1] [nM]
Cc1nc(-c2ccccc2)[nH]c1CN1CCN(c2ncccn2)CC1	2980	6	–
c1ccc(-c2ncc(CN3CCN(c4ccncc4)CC3)[nH]2)cc1	> 8000	> 7300	–
c1ccc(-c2ncc(CN3CCN(c4ncccn4)CC3)[nH]2)cc1	> 8000	3.8	181

Next, values leading:

Ki (D(3) dopamine receptor) [nM]	Ki (D(4) dopamine receptor) [nM]	Ki [1] [nM]	Structure (SMILES)
> 6660	50	–	c1ccc(-c2nc(CN3CCN(c4cnccn4)CC3)c[nH]2)cc1
1530	8.5	–	c1ccc(-c2ncc(CN3CCN(c4ccccn4)CC3)[nH]2)cc1
193	5.2	–	c1ccc(-c2nc(CN3CCN(c4ccccc4)CC3)c[nH]2)cc1
–	73	–	c1ccc(-c2nc(CN3CCN(c4cccnc4)CC3)c[nH]2)cc1
> 8000	1400	–	c1ccc(-c2nc(CN3CCN(c4ccncn4)CC3)c[nH]2)cc1
